Data set [1] deals with WT TIE-1 with an empty vector (pRhokS-2). The data set is classed as cell-based, Rhodopseudomonas palustris TIE-1. The conditions noted are these: for Doubling time: WT with pAB423; for effect on TIE-1 growth of the amount produced in the study: amounts produced by the engineered strains (n-butanol up to 4.98 mg/L; acetone up to about 290 mg/L). How it is done: Toxicity Study. WT TIE-1 with an empty vector (pRhokS-2) was used to test the tolerance of TIE-1 for acetone and n-butanol. To test the tolerance, 0, 0.25, 0.5, 1, or 2% n-butanol (v/v), or 0, 0.1, 0.25, 0.5, 1, or 2% acetone (v/v), was added to FW media with acetate (10 mM). Growth was monitored by recording OD660 overtime.

The subject of data set [2] is phiC31 integrase (Streptomyces phage phiC31?). Put plainly: cell_activity.

We go through four molecules from US20230242947A1, “GENETICALLY ENGINEERED RHODOPSEUDOMONAS PALUSTRIS” (priority 2021, published 2023).

Like-named read-outs stand apart in the source and are kept apart here.

On to `CC(C)=O` [acetone], for which the Doubling time in data set [1] (acetone 1960 mg/L in media) was 6.74 h; in data set [1] (acetone 3920 mg/L in media), 5.82 h; in data set [1] (acetone 7840 mg/L in media), 5.56 h; in data set [1] (acetone 15680 mg/L in media) it was 4.88 h. Further, in data set [1], the “effect on TIE-1 growth of the amount produced in the study” value is “does not limit TIE-1's growth”.
Take `CCCCO` [n-butanol]: the Doubling time in data set [1] (n-butanol 2025 mg/L in media) is 20.091 h; in data set [1] (n-butanol 4050 mg/L in media), “No growth”; in data set [1] (n-butanol 8100 mg/L in media), “No growth”; in data set [1] (n-butanol 16200 mg/L in media), “No growth”. Besides, the “effect on TIE-1 growth of the amount produced in the study” value in data set [1] is given as “does not limit the growth of TIE-1”. The “lowest inhibitory concentration of n-butanol for TIE-1” value in data set [1] (toxicity assay, FW media with acetate (10 mM)) is 4050 mg/L.
The molecule “phiC31 attB site (in TIE-1 genome at glmUSX-recG locus)” had an activity in data set [2] (attB x attP integration of mcherry in R. palustris TIE-1, editing efficiency 100% for genome-based system and constitutive plasmid system, about 80% for …) of 100%.
In data set [2] (attP donor plasmid partner of attB, same integration assay, about 80% with inducible plasmid system), “phiC31 attP site (on suicide plasmid pWB081/pWB088)” had an activity of 100%.
